The values below come from PubChem BioAssay (NCI).

Among the test systems are HS 578T breast; ACHN renal; HT29 colon; KM12 colon; HCC-2998 colon; SK-OV-3 ovarian; NCI-H23 lung; HOP-92 NSCLC; SF-539 CNS; MOLT-4 leukemia.
Holding throughout (assay): growth of human tumour cells (NCI), 48 h

“And” between values parts separate entries of the source, which are not always exact repeats. Identical values can stand only once.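 How tested: cells in 96-well plates exposed to compound for 48 hours at five concentrations. The concentration for 50% growth inhibition is given as GI50. TGI: total growth inhibition.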

Consider `O=C(Cn1ccnc1[N+](=O)[O-])NCC(F)(F)C(F)(F)F`, for which the GI50 in the test on HS 578T breast was > 100 µM; in the test on ACHN renal, > 100000 nM; in the test with HT29 colon it was > 100000 nM; in the test on KM12 colon it was > 100000 nM; in the test on HCC-2998 colon, > 100000 nM; with SK-OV-3 ovarian, > 100 µM. The GI50 in the test on NCI-H23 lung was > 100 µM; in the test on HOP-92 NSCLC, > 100000 nM; in the test on SF-539 CNS it was > 100000 nM. The TGI in the test with HS 578T breast, with ACHN renal, in the test with HT29 colon, in the test with KM12 colon, in the test on HCC-2998 colon and in the test with SK-OV-3 ovarian was > 100 µM each time. Further, the TGI in the test on NCI-H23 lung, in the test on HOP-92 NSCLC and in the test with SF-539 CNS was > 100 µM throughout.
As to `Clc1ccc(CO/N=C(\Cn2ccnc2)c2ccc(Cl)cc2Cl)c(Cl)c1`, the GI50 in the test on MOLT-4 leukemia was 2190 nM; in the test on HS 578T breast it was 2.73 µM; in the test on ACHN renal, 1760 nM; in the test with HT29 colon it was 1650 nM; in the test on HCC-2998 colon it was 1730 nM; in the test with SK-OV-3 ovarian, 1.8 µM. Further, the GI50 was 1150 nM in the test on HOP-92 NSCLC and 1860 nM in the test on SF-539 CNS. Also, the TGI in the test with MOLT-4 leukemia is 4.94 µM; in the test with HS 578T breast, > 100 µM; in the test on ACHN renal, 3.17 µM; in the test with HT29 colon, 3.33 µM; in the test with HCC-2998 colon, 3.42 µM; in the test with SK-OV-3 ovarian it was 3.18 µM. For the same molecule, the TGI in the test on HOP-92 NSCLC was 2.53 µM; in the test with SF-539 CNS it was 3.34 µM.
As to `CNC1C(O)CC(OC2C/C=C(\C)C/C(C)=C/C=C/CCC(C)CNC(=O)/C=C/C=C/C2C)OC1C` (stereo not drawn), the TGI with HS 578T breast came to 1.85 µM; in the test on ACHN renal, 2.85 µM; in the test on HT29 colon, 0.504 µM; with KM12 colon, 1.02 µM; in the test with HCC-2998 colon, 1.42 µM; in the test with SK-OV-3 ovarian, 3.27 µM. Besides, the TGI with NCI-H23 lung stood at 2.62 µM; in the test on HOP-92 NSCLC it was 2.11 µM; with SF-539 CNS, 3.14 µM.
As for `Nc1ccn([C@@H]2C=C(CO)[C@@H](O)[C@H]2O)c(=O)n1`, the GI50 in the test on MOLT-4 leukemia is 17.1 nM; in the test with HS 578T breast it was 4.56 µM; in the test on ACHN renal, 50 nM; with KM12 colon, 160 nM and 62.5 nM; with NCI-H23 lung it was 0.114 µM. Also, the TGI in the test with ACHN renal is 500 µM; in the test on HT29 colon, 394 µM and > 625 µM; with KM12 colon, 500 µM and > 625 µM; with SF-539 CNS, 266 µM and > 625 µM.
Turning to `C[C@]12CCC(=O)C=C1CC[C@@H]1[C@@H]2CC[C@]2(C)C(=O)/C(=C/c3cccc(OCCN4CCOCC4)c3)C[C@@H]12`, the GI50 is 16.6 µM in the test with HS 578T breast; 18700 nM in the test on ACHN renal; 2870 nM with HT29 colon; 9020 nM in the test with KM12 colon; 11.7 µM with SK-OV-3 ovarian; 3.79 µM in the test with NCI-H23 lung. Further, the GI50 in the test with HOP-92 NSCLC was 10200 nM; in the test with SF-539 CNS, 10500 nM. The TGI in the test on HS 578T breast was 66.7 µM; in the test with ACHN renal it was > 100 µM; in the test with HT29 colon, 16.2 µM; in the test with KM12 colon, > 100 µM; with SK-OV-3 ovarian it was > 100 µM; in the test with NCI-H23 lung, 20.6 µM. Moreover, the TGI in the test on HOP-92 NSCLC is 31.7 µM; in the test on SF-539 CNS it was 23.7 µM.
`CCN(CC)CCOc1cc2c(C(=O)OC)c(C)oc2cc1C(C)=O`: the GI50 in the test with MOLT-4 leukemia is 3020 nM; in the test on HS 578T breast, 13.4 µM; in the test on ACHN renal it was 5650 nM; in the test with HT29 colon, 17000 nM; in the test with KM12 colon, 4450 nM; in the test on HCC-2998 colon, 15700 nM. The values for the GI50 with SK-OV-3 ovarian and in the test on NCI-H23 lung were 14.7 µM and 11.8 µM, respectively. In addition, the TGI in the test on MOLT-4 leukemia was found to be 7.5 µM; in the test with HS 578T breast, 31.4 µM; in the test with ACHN renal, 18.3 µM; in the test with HT29 colon, 94.9 µM; in the test with KM12 colon, 21.1 µM; in the test on HCC-2998 colon, 29.3 µM. For the same molecule, the TGI in the test with SK-OV-3 ovarian was 30.2 µM; in the test with NCI-H23 lung, 27.7 µM.
On to `CN1CCN(Cc2ccc(NC(=O)c3cncc(C#Cc4c(N)ncc5cc(F)ccc45)c3)cc2C(F)(F)F)CC1`, for which the GI50 in the test on HS 578T breast is 1.11 µM; with ACHN renal, 1990 nM; in the test on HT29 colon it was 276 nM; in the test with KM12 colon, 17.2 nM; with HCC-2998 colon, 2040 nM; in the test with SK-OV-3 ovarian it was 6.3 µM. Also, the GI50 in the test on NCI-H23 lung was 1.36 µM; in the test on HOP-92 NSCLC, 200 nM; in the test on SF-539 CNS, 860 nM. Also, the TGI is 6.47 µM in the test with HS 578T breast; 8.84 µM in the test on ACHN renal; 1.15 µM in the test on HT29 colon; 0.738 µM with KM12 colon; 11.1 µM with HCC-2998 colon; 13 µM in the test on SK-OV-3 ovarian. In addition, the TGI was 4.65 µM in the test with NCI-H23 lung, 2.03 µM with HOP-92 NSCLC and 2.73 µM in the test on SF-539 CNS.
For the molecule `CCOC(=O)c1cc2ncccc2c2ccccc12`, the TGI with MOLT-4 leukemia, in the test on HS 578T breast, in the test with ACHN renal, in the test with HT29 colon, with KM12 colon and with HCC-2998 colon was > 100 µM each time. Besides, the TGI in the test with SK-OV-3 ovarian, in the test with NCI-H23 lung and in the test with HOP-92 NSCLC was > 100 µM each time.
As for `CN=S(=O)(C[C@]1(O)CC2OC1C1OC(C)(C)OC21)c1ccccc1` (stereo partly drawn), the TGI with MOLT-4 leukemia, in the test on ACHN renal, with HT29 colon, in the test on KM12 colon, in the test with HCC-2998 colon and in the test on SK-OV-3 ovarian was > 100 µM each time. Also, the TGI with NCI-H23 lung, in the test with HOP-92 NSCLC and with SF-539 CNS was > 100 µM each time.
As for `CN(CCC(=O)O)S(=O)(=O)c1ccccc1`, the TGI in the test on MOLT-4 leukemia, in the test on HS 578T breast, in the test on ACHN renal, in the test with HT29 colon, in the test on KM12 colon and with SK-OV-3 ovarian was > 100 µM in each case. Besides, the TGI with NCI-H23 lung, in the test on HOP-92 NSCLC and in the test on SF-539 CNS was > 100 µM each time.
As for `CCN(CC)c1ccc2c(c1)N=C1N=CC=CN1C2(c1ccc(N(C)C)cc1)c1ccc(N(C)C)cc1`, the TGI worked out at 6.22 µM in the test with MOLT-4 leukemia; 16.1 µM in the test with ACHN renal; 10.6 µM in the test with HT29 colon; 15.6 µM in the test on KM12 colon; 13.2 µM in the test on HCC-2998 colon; 19.1 µM in the test on SK-OV-3 ovarian. Besides, the values for the TGI with NCI-H23 lung, in the test with HOP-92 NSCLC and in the test on SF-539 CNS were 20.2 µM, 8.6 µM and 28.6 µM, respectively.
